Patent publication US11214594B2, “Antimicrobial peptide having synergistic antibacterial effect with antibiotics on multidrug resistant bacteria, and use thereof” (priority 2016, dated 2022)
In brackets after ≈: the same amount, converted by molar mass. Where a SMILES comes first, the peptide text is derived from it. [ ]: non-standard residue; d: D form.

Legend:
S. typhimurium = experiment: microbe, parasite or virus in culture; assay type: cell-based, Salmonella typhimurium
In short: (§1)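 Broth microdilution in MH medium: bacterial strains diluted to 2×10^6 CFU were mixed with equal volumes of peptide serially diluted twofold in MH medium.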

MDRPA 2003 = assay type: cell-based, Pseudomonas aeruginosa
In short: as §1

MDRPA 2002 = assay type: cell-based, Pseudomonas aeruginosa
In short: as §1

MRSA 3114 = assay type: cell-based, Staphylococcus aureus; conditions: 3114
In short: as §1

MRSA 3126 = assay type: cell-based, Staphylococcus aureus; conditions: 3126
In short: as §1

MDRAB 12035 [1] = experiment: microbe, parasite or virus in culture; assay type: cell-based, Acinetobacter baumannii
In short: as §1

A. baumannii = experiment: microbe, parasite or virus in culture; assay type: cell-based, Acinetobacter baumannii; conditions: for Antibacterial activity relative to PapMA-1: A. baumannii and S. typhimurium
In short: as §1

MDREC 1238 = assay type: cell-based, Escherichia coli
In short: as §1

MDRST 8009 = assay type: cell-based, Salmonella typhimurium; conditions: agent alone
In short: as §1

[2] = system: multi-drug resistant bacteria; experiment: MIC, summary statements for multi-drug resistant bacteria; assay type: cell-based
Procedure: For the antibacterial activity, a minimal inhibitory concentration (MIC) of a peptide in which fungus bodies were not split in an MH medium with sufficient nutrients was measured.
Specifically, the strains described in the following [Table 2] were purchased and diluted with an MH medium such that the number of bacteria was 2×10^6 colony-forming units (CFUs), 100 μl of each of the diluted strains was aliquoted into a 96-well microtiter plate, and then 100 μl of a peptide solution diluted with the MH medium (solution diluted stepwise at 2: 1) was added to each well.

S. epidermidis = experiment: microbe, parasite or virus in culture; assay type: cell-based, Staphylococcus epidermidis
In short: as §1

MDRAB 12035 [3] = experiment: MIC of antibiotic during combined treatment with antimicrobial peptide; assay type: cell-based, Acinetobacter baumannii
In short: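 Antibiotic MIC came from antibiotic dilutions added to bacteria (2×10^6 CFU/ml, MH medium) already combined with peptide serially diluted 2:1 from its own MIC. Swapping the roles of the two agents gave the peptide MIC.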

P. aeruginosa = experiment: microbe, parasite or virus in culture; assay type: cell-based, Pseudomonas aeruginosa
In short: as §1

[4] = peptide treatment concentration 1 μg/ml
[5] = peptide treatment concentration 2 μg/ml
[6] = peptide treatment concentration 4 μg/ml
[7] = peptide treatment concentration 6 μg/ml
[8] = peptide treatment concentration 8 μg/ml
[9] = peptide treatment concentration 16 μg/ml
[10] = peptide treatment concentration 32 μg/ml
[11] = peptide treatment concentration 64 μg/ml

| SMILES | Minimal inhibitory concentration MIC (S. typhimurium) [mg/L] | Minimal inhibitory concentration MIC (MDRPA 2003) [mg/L] | Minimal inhibitory concentration MIC (MDRPA 2002) [mg/L] | Minimal inhibitory concentration MIC (MRSA 3114) [mg/L] | Minimal inhibitory concentration MIC (MRSA 3126) [mg/L] | Minimal inhibitory concentration MIC (MDRAB 12035 [1]) [mg/L] | Peptide MIC, peptide alone (MDRAB 12035 [1]) [mg/L] | Minimal inhibitory concentration MIC (A. baumannii) [mg/L] | Peptide MIC, peptide alone (A. baumannii) [mg/L] | Antibacterial activity relative to PapMA-1 (A. baumannii) | Minimal inhibitory concentration MIC (MDREC 1238) [mg/L] | Minimal inhibitory concentration MIC (MDRST 8009) [mg/L] | Antibacterial activity relative to PapMA-1 [2] | Minimal inhibitory concentration MIC (S. epidermidis) [mg/L] | Erythromycin MIC during combined treatment with peptide (MDRAB 12035 [3]; [4]) [mg/L] | Linezolid MIC during combined treatment with peptide (MDRAB 12035 [3]; [4]) [mg/L] | Vancomycin MIC during combined treatment with peptide (MDRAB 12035 [3]; [4]) [mg/L] | Erythromycin MIC during combined treatment with peptide (MDRAB 12035 [3]; [5]) [mg/L] | Linezolid MIC during combined treatment with peptide (MDRAB 12035 [3]; [5]) [mg/L] | Vancomycin MIC during combined treatment with peptide (MDRAB 12035 [3]; [5]) [mg/L] | other results |
| --- | --- | --- | --- | --- | --- | --- | --- | --- | --- | --- | --- | --- | --- | --- | --- | --- | --- | --- | --- | --- | --- |
| CC[C@H](C)[C@H](NC(=O)[C@H](CCCCN)NC(=O)[C@H](Cc1c[nH]c2ccccc12)NC(=O)[C@@H](N)CCCNC(=N)N)C(=O)N[C@@H](Cc1ccccc1)C(=O)N[C@@H](CCCCN)C(=O)N[C@@H](CCCCN)C(=O)N[C@H](C(=O)N1CCC[C@H]1C(=O)N[C@@H](CCCCN)C(=O)N[C@@H](Cc1ccccc1)C(=O)N[C@@H](CC(C)C)C(=O)N[C@@H](Cc1c[nH]cn1)C(=O)N[C@@H](CCC(=O)O)C(=O)N[C@@H](C)C(=O)N[C@@H](CCCCN)C(=O)N[C@@H](CCCCN)C(=O)N[C@@H](Cc1c[nH]c2ccccc12)C(N)=O)[C@@H](C)CC [PapMA-14, RWK IFK KIP KFL HEA KKW-NH2] (H-RWKIFKKIPKFLHEAKKW-NH2; N-terminus assumed) | 16 (≈ 6.71 µM) | 64 (≈ 26.9 µM) | 64 (≈ 26.9 µM) | >128 | >128 | 16 (≈ 6.71 µM) | 16 | 16 (≈ 6.71 µM) | 16 | at least twice as high | 16 (≈ 6.71 µM) | 32 (≈ 13.4 µM) | twice to four times higher | >128 | 16 | 128 | >128 | 8 | 64 | 64 | Erythromycin MIC during combined treatment with peptide (MDRAB 12035 [3]; [6]): 4 mg/L; Linezolid MIC during combined treatment with peptide (MDRAB 12035 [3]; [6]): 16 mg/L; Vancomycin MIC during combined treatment with peptide (MDRAB 12035 [3]; [6]): 16 mg/L; Erythromycin MIC during combined treatment with peptide (MDRAB 12035 [3]; [7]): 1 mg/L; Linezolid MIC during combined treatment with peptide (MDRAB 12035 [3]; [7]): 4 mg/L; Vancomycin MIC during combined treatment with peptide (MDRAB 12035 [3]; [7]): 4 mg/L; Erythromycin MIC during combined treatment with peptide (MDRAB 12035 [3]; [8]): 0.5 mg/L; Linezolid MIC during combined treatment with peptide (MDRAB 12035 [3]; [8]): 1 mg/L; Vancomycin MIC during combined treatment with peptide (MDRAB 12035 [3]; [8]): 1 mg/L; Erythromycin MIC during combined treatment with peptide (MDRAB 12035 [3]; [9]): 0 mg/L; Linezolid MIC during combined treatment with peptide (MDRAB 12035 [3]; [9]): 0 mg/L; Vancomycin MIC during combined treatment with peptide (MDRAB 12035 [3]; [9]): 0 mg/L; Erythromycin MIC during combined treatment with peptide (MDRAB 12035 [3]; [10]): 0 mg/L; Linezolid MIC during combined treatment with peptide (MDRAB 12035 [3]; [10]): 0 mg/L; Vancomycin MIC during combined treatment with peptide (MDRAB 12035 [3]; [10]): 0 mg/L; Erythromycin MIC during combined treatment with peptide (MDRAB 12035 [3]; [11]): 0 mg/L; Linezolid MIC during combined treatment with peptide (MDRAB 12035 [3]; [11]): 0 mg/L; Vancomycin MIC during combined treatment with peptide (MDRAB 12035 [3]; [11]): 0 mg/L; Minimal inhibitory concentration MIC (P. aeruginosa): 64 mg/L (≈ 26.9 µM) |
| CC[C@H](C)[C@H](NC(=O)[C@H](CCCCN)NC(=O)[C@H](Cc1c[nH]c2ccccc12)NC(=O)[C@@H](N)CCCNC(=N)N)C(=O)N[C@@H](Cc1ccccc1)C(=O)N[C@@H](CCCCN)C(=O)N[C@@H](CCCCN)C(=O)N[C@H](C(=O)N[C@H](CCCCN)C(=O)N[C@@H](CCCCN)C(=O)N[C@@H](CC(C)C)C(=O)N[C@@H](CC(C)C)C(=O)N[C@@H](Cc1c[nH]cn1)C(=O)N[C@@H](CO)C(=O)N[C@@H](Cc1ccccc1)C(=O)N[C@@H](CCCCN)C(=O)N[C@@H](CCCCN)C(=O)N[C@@H](Cc1ccccc1)C(N)=O)[C@@H](C)CC [PapMA-15, RWK IFK KIk KLL HSF KKF-NH2] (H-RWKIFKKI[dK]KLLHSFKKF-NH2; N-terminus assumed) | 32 (≈ 13.5 µM) | 32 (≈ 13.5 µM) | 32 (≈ 13.5 µM) | >128 | >128 | 32 (≈ 13.5 µM) | 32 | 32 (≈ 13.5 µM) | 32 | at least twice as high | 32 (≈ 13.5 µM) | 64 (≈ 26.9 µM) | twice to four times higher | >128 | 32 | >128 | >128 | 32 | >128 | >128 | Erythromycin MIC during combined treatment with peptide (MDRAB 12035 [3]; [6]): 16 mg/L; Linezolid MIC during combined treatment with peptide (MDRAB 12035 [3]; [6]): 64 mg/L; Vancomycin MIC during combined treatment with peptide (MDRAB 12035 [3]; [6]): 128 mg/L; Erythromycin MIC during combined treatment with peptide (MDRAB 12035 [3]; [7]): 2 mg/L; Linezolid MIC during combined treatment with peptide (MDRAB 12035 [3]; [7]): 64 mg/L; Vancomycin MIC during combined treatment with peptide (MDRAB 12035 [3]; [7]): 32 mg/L; Erythromycin MIC during combined treatment with peptide (MDRAB 12035 [3]; [8]): 1 mg/L; Linezolid MIC during combined treatment with peptide (MDRAB 12035 [3]; [8]): 32 mg/L; Vancomycin MIC during combined treatment with peptide (MDRAB 12035 [3]; [8]): 32 mg/L; Erythromycin MIC during combined treatment with peptide (MDRAB 12035 [3]; [9]): 0.25 mg/L; Linezolid MIC during combined treatment with peptide (MDRAB 12035 [3]; [9]): 4 mg/L; Vancomycin MIC during combined treatment with peptide (MDRAB 12035 [3]; [9]): 16 mg/L; Erythromycin MIC during combined treatment with peptide (MDRAB 12035 [3]; [10]): 0 mg/L; Linezolid MIC during combined treatment with peptide (MDRAB 12035 [3]; [10]): 0 mg/L; Vancomycin MIC during combined treatment with peptide (MDRAB 12035 [3]; [10]): 0 mg/L; Erythromycin MIC during combined treatment with peptide (MDRAB 12035 [3]; [11]): 0 mg/L; Linezolid MIC during combined treatment with peptide (MDRAB 12035 [3]; [11]): 0 mg/L; Vancomycin MIC during combined treatment with peptide (MDRAB 12035 [3]; [11]): 0 mg/L; Minimal inhibitory concentration MIC (P. aeruginosa): 32 mg/L (≈ 13.5 µM) |
